Experimental data taken from patent US8247211B2, “Glycopeptide antibiotics” (American Cyanamid Company, priority 2001, dated 2012).
≈ marks a conversion by molar mass, not a printed value. One block for each compound: values may come before it.

Experiments:
Experiment in all cases: In vitro antibacterial evaluation: minimum inhibitory concentration (MIC), broth dilution method
Assay type in all cases: cell-based
[1] = system: Enterococcus sp.; conditions: for MIC Enterococcus faecalis (ATCC 29212): strain ATCC 29212; for MIC Enterococcus faecium (GC 2243): strain GC 2243; for MIC Enterococcus faecalis (GC 4552): strain GC 4552; for MIC Enterococcus faecalis (GC 4553): strain GC 4553; for MIC Enterococcus faecalis (GC 4554): strain GC 4554; for MIC Enterococcus faecium (GC 4556): strain GC 4556; for MIC Enterococcus faecium (GC 4557): strain GC 4557; for MIC Enterococcus avium (GC 4558): strain GC 4558; for MIC Enterococcus faecalis (GC 6189): strain GC 6189
Protocol: (§1) The minimum inhibitory concentration (MIC), the lowest concentration of the antibiotic which inhibits growth of the test organism, is determined by the broth dilution method using Muller-Hinton II […] (Baltimore Biological Laboratories) following the recommendations of the National Committee for Clinical Laboratory Standards [Methods for dilution antimicrobial susceptibility tests for bacteria that grow aerobically, approved standard M7-A2, National Committee for Clinical Laboratory Standards, Villanova, Pa].
(§2) An inoculum level of 5×10^5 CFU/mL, and a range of antibiotic concentrations (64-0.06 μg/mL) is used. […] The test organisms include a spectrum of Gram-positive bacteria comprised of Staphylococcus sp., Streptococcus sp. and Enterococcus sp. These organisms include recent clinical isolates that are resistant to methicillin, penicillin and/or vancomycin.

[2] = system: Escherichia coli; conditions: strain GC 4560
Protocol: as §1, §2

[3] = system: Staphylococcus sp.; conditions: broth dilution, 18 hours at 35° C.; for MIC Staphylococcus aureus-SMITH (GC 4543): strain SMITH GC 4543
Protocol: as §1, §2

[4] = system: Streptococcus sp.
Protocol: as §1, §2

[5] = Enterococcus faecalis (GC 2242), broth dilution, 18 hours at 35° C.
[6] = Enterococcus faecalis (GC 2691), broth dilution, 18 hours at 35° C.
[7] = Enterococcus faecalis (GC 3059), broth dilution, 18 hours at 35° C.
[8] = Streptococcus agalactiae (GC 4564), broth dilution, 18 hours at 35° C.
[9] = Streptococcus pneumoniae (ATCC 6301), broth dilution, 18 hours at 35° C.
[10] = Streptococcus pneumoniae (GC 1894), broth dilution, 18 hours at 35° C.
[11] = Streptococcus pneumoniae (GC 4565), broth dilution, 18 hours at 35° C.
[12] = Streptococcus pyogenes (GC 4563), broth dilution, 18 hours at 35° C.

MIC Enterococcus faecalis (GC 2242) [1, 5]: 16 mg/L (≈ 8.52 µM)
MIC Enterococcus faecalis (GC 2691) [1, 6]: 8 mg/L (≈ 4.26 µM)
MIC Enterococcus faecalis (GC 3059) [1, 7]: 32 mg/L (≈ 17 µM)
MIC Enterococcus faecalis (ATCC 29212) [1]: 8 mg/L (≈ 4.26 µM)
MIC Enterococcus faecalis (GC 2242) ([1]; strain GC 2242): 16 mg/L (≈ 8.52 µM)
MIC Enterococcus faecium (GC 2243) [1]: 8 mg/L (≈ 4.26 µM)
MIC Enterococcus faecalis (GC 2691) ([1]; strain GC 2691): 8 mg/L (≈ 4.26 µM)
MIC Enterococcus faecalis (GC 3059) ([1]; strain GC 3059): 32 mg/L (≈ 17 µM)
MIC Enterococcus faecalis (GC 4552) [1]: 32 mg/L (≈ 17 µM)
MIC Enterococcus faecalis (GC 4553) [1]: 4 mg/L (≈ 2.13 µM)
MIC Enterococcus faecalis (GC 4554) [1]: 16 mg/L (≈ 8.52 µM)
MIC Enterococcus faecium (GC 4556) [1]: 32 mg/L (≈ 17 µM)
MIC Enterococcus faecium (GC 4557) [1]: 4 mg/L (≈ 2.13 µM)
MIC Enterococcus avium (GC 4558) [1]: 2 mg/L (≈ 1.06 µM)
MIC Enterococcus faecalis (GC 6189) [1]: 8 mg/L (≈ 4.26 µM)
MIC Escherichia coli (GC 4560) [2]: 2 mg/L (≈ 1.06 µM)
MIC Coagulase Negative Staphylococcus (GC 4547) [3]: 4 mg/L (≈ 2.13 µM)
MIC Coagulase Negative Staphylococcus (GC 4548) [3]: 4 mg/L (≈ 2.13 µM)
MIC Coagulase Negative Staphylococcus (GC 4549) [3]: 2 mg/L (≈ 1.06 µM)
MIC Coagulase Negative Staphylococcus (GC 4551) [3]: 4 mg/L (≈ 2.13 µM)
MIC Coagulase Negative Staphylococcus (GC 6257) [3]: 4 mg/L (≈ 2.13 µM)
MIC Staphylococcus aureus (ATCC 29213) [3]: 4 mg/L (≈ 2.13 µM)
MIC Staphylococcus aureus (GC 1131) [3]: 8 mg/L (≈ 4.26 µM)
MIC Staphylococcus aureus (GC 3051) [3]: 4 mg/L (≈ 2.13 µM)
MIC Staphylococcus aureus (GC 3053) [3]: 4 mg/L (≈ 2.13 µM)
MIC Staphylococcus aureus (GC 4541) [3]: 4 mg/L (≈ 2.13 µM)
MIC Staphylococcus aureus (GC 4542) [3]: 4 mg/L (≈ 2.13 µM)
MIC Staphylococcus aureus (GC 4544) [3]: 8 mg/L (≈ 4.26 µM)
MIC Staphylococcus aureus (GC 4545) [3]: 4 mg/L (≈ 2.13 µM)
MIC Staphylococcus aureus SMITH (GC 4543) [3]: 4 mg/L (≈ 2.13 µM)
MIC Staphylococcus aureus-SMITH (GC 4543) [3]: 4 mg/L (≈ 2.13 µM)
MIC Streptococcus agalactiae (GC 4564) [4, 8]: 4 mg/L (≈ 2.13 µM)
MIC Streptococcus pneumoniae (ATCC 6301) [4, 9]: 4 mg/L (≈ 2.13 µM)
MIC Streptococcus pneumoniae (GC 1894) [4, 10]: 8 mg/L (≈ 4.26 µM)
MIC Streptococcus pneumoniae (GC 4565) [4, 11]: 8 mg/L (≈ 4.26 µM)
MIC Streptococcus pyogenes (GC 4563) [4, 12]: 4 mg/L (≈ 2.13 µM)
MIC Streptococcus pneumoniae (ATCC 6301) ([4]; strain ATCC 6301): 4 mg/L (≈ 2.13 µM)
MIC Streptococcus pneumoniae (GC 1894) ([4]; strain GC 1894): 8 mg/L (≈ 4.26 µM)
MIC Streptococcus pyogenes (GC 4563) ([4]; strain GC 4563): 4 mg/L (≈ 2.13 µM)
MIC Streptococcus agalactiae (GC 4564) ([4]; strain GC 4564): 4 mg/L (≈ 2.13 µM)
MIC Streptococcus pneumoniae (GC 4565) ([4]; strain GC 4565): 8 mg/L (≈ 4.26 µM)
SMILES: CC(c1ccccc1)C1NC(=O)CNC(=O)C(CO)NC(=O)C(C(O)C2CN(Cc3ccccc3)C(=NCc3ccccc3)N2C2OC(CO)C(O)C(O)C2O)NC(=O)C(C(O)C2CN(Cc3ccccc3)C(=NCc3ccccc3)N2Cc2ccccc2)NC(=O)C(Cc2ccc(OC3OC(CO)C(OC4OC5COC6(OC5C(O)C4O)C4CC5CC(C4)CC6C5)C(O)C3O)cc2)NC1=O (stereo not drawn) [Example 79, Cyclo[glycyl-β-methylphenylalanyl-O-[4-O-[4,6-O-(2-adamantylidene)hexopyranosyl]hexopyranosyl]tyrosyl-3-[1,3-dibenzyl-2-(benzylimino)imidazolidin-4-yl]seryl-3-[1-benzyl-2-(benzylimino)-3-hexopyranosylimidazolidin-4-yl]serylseryl]]
MIC Staphylococcus haemolyticus (GC 4546) [3]: 4 mg/L (≈ 2.13 µM)

MIC Enterococcus faecalis (GC 2242) [1, 5]: 16 mg/L (≈ 10.2 µM)
MIC Enterococcus faecalis (GC 2691) [1, 6]: 16 mg/L (≈ 10.2 µM)
MIC Enterococcus faecalis (GC 3059) [1, 7]: 16 mg/L (≈ 10.2 µM)
MIC Enterococcus faecalis (ATCC 29212) [1]: 16 mg/L (≈ 10.2 µM)
MIC Enterococcus faecalis (GC 2242) ([1]; strain GC 2242): 16 mg/L (≈ 10.2 µM)
MIC Enterococcus faecium (GC 2243) [1]: 8 mg/L (≈ 5.12 µM)
MIC Enterococcus faecalis (GC 2691) ([1]; strain GC 2691): 16 mg/L (≈ 10.2 µM)
MIC Enterococcus faecalis (GC 3059) ([1]; strain GC 3059): 16 mg/L (≈ 10.2 µM)
MIC Enterococcus faecalis (GC 4552) [1]: 16 mg/L (≈ 10.2 µM)
MIC Enterococcus faecalis (GC 4553) [1]: 8 mg/L (≈ 5.12 µM)
MIC Enterococcus faecalis (GC 4554) [1]: 32 mg/L (≈ 20.5 µM)
MIC Enterococcus faecium (GC 4556) [1]: 16 mg/L (≈ 10.2 µM)
MIC Enterococcus faecium (GC 4557) [1]: 2 mg/L (≈ 1.28 µM)
MIC Enterococcus avium (GC 4558) [1]: 4 mg/L (≈ 2.56 µM)
MIC Enterococcus faecalis (GC 6189) [1]: 16 mg/L (≈ 10.2 µM)
MIC Escherichia coli (GC 4560) [2]: 4 mg/L (≈ 2.56 µM)
MIC Coagulase Negative Staphylococcus (GC 4547) [3]: 4 mg/L (≈ 2.56 µM)
MIC Coagulase Negative Staphylococcus (GC 4548) [3]: 4 mg/L (≈ 2.56 µM)
MIC Coagulase Negative Staphylococcus (GC 4549) [3]: 4 mg/L (≈ 2.56 µM)
MIC Coagulase Negative Staphylococcus (GC 4551) [3]: 8 mg/L (≈ 5.12 µM)
MIC Staphylococcus aureus (ATCC 29213) [3]: 8 mg/L (≈ 5.12 µM)
MIC Staphylococcus aureus (GC 1131) [3]: 16 mg/L (≈ 10.2 µM)
MIC Staphylococcus aureus (GC 3051) [3]: 8 mg/L (≈ 5.12 µM)
MIC Staphylococcus aureus (GC 3053) [3]: 16 mg/L (≈ 10.2 µM)
MIC Staphylococcus aureus (GC 4541) [3]: 8 mg/L (≈ 5.12 µM)
MIC Staphylococcus aureus (GC 4542) [3]: 16 mg/L (≈ 10.2 µM)
MIC Staphylococcus aureus (GC 4544) [3]: 16 mg/L (≈ 10.2 µM)
MIC Staphylococcus aureus (GC 4545) [3]: 8 mg/L (≈ 5.12 µM)
MIC Staphylococcus aureus SMITH (GC 4543) [3]: 8 mg/L (≈ 5.12 µM)
MIC Staphylococcus aureus-SMITH (GC 4543) [3]: 8 mg/L (≈ 5.12 µM)
MIC Streptococcus agalactiae (GC 4564) [4, 8]: 0.5 mg/L (≈ 0.32 µM)
MIC Streptococcus pneumoniae (ATCC 6301) [4, 9]: 2 mg/L (≈ 1.28 µM)
MIC Streptococcus pneumoniae (GC 1894) [4, 10]: 0.25 mg/L (≈ 0.16 µM)
MIC Streptococcus pneumoniae (GC 4565) [4, 11]: 2 mg/L (≈ 1.28 µM)
MIC Streptococcus pyogenes (GC 4563) [4, 12]: 1 mg/L (≈ 0.64 µM)
MIC Streptococcus pneumoniae (ATCC 6301) ([4]; strain ATCC 6301): 2 mg/L (≈ 1.28 µM)
MIC Streptococcus pneumoniae (GC 1894) ([4]; strain GC 1894): 0.25 mg/L (≈ 0.16 µM)
MIC Streptococcus pyogenes (GC 4563) ([4]; strain GC 4563): 1 mg/L (≈ 0.64 µM)
MIC Streptococcus agalactiae (GC 4564) ([4]; strain GC 4564): 0.5 mg/L (≈ 0.32 µM)
MIC Streptococcus pneumoniae (GC 4565) ([4]; strain GC 4565): 2 mg/L (≈ 1.28 µM)
SMILES: CC(C)=CCCC(C)=CCN=C1NCC(C(O)C2NC(=O)C(C(O)C3CNC(=N)N3)NC(=O)C(Cc3ccc(OC4OC(CO)C(OC5OC6COC7(OC6C(O)C5O)C5CC6CC(C5)CC7C6)C(O)C4O)cc3)NC(=O)C(C(C)c3ccccc3)NC(=O)CNC(=O)C(CO)NC2=O)N1C1OC(CO)C(O)C(O)C1O (stereo not drawn) [Example 82, Cyclo[glycyl-β-methylphenylalanyl-O-[4-O-[4,6-O-(2-adamantylidene)hexopyranosyl]hexopyranosyl]tyrosyl-3-(2-iminoimidazolidin-4-yl)seryl-3-[1-[(3,7-dimethylocta-2,6-dien-1-yl)-imino]-3-hexopyranosylimidazolidin-4-yl]serylseryl]]
MIC Staphylococcus haemolyticus (GC 4546) [3]: 4 mg/L (≈ 2.56 µM)
